Here are results for 4 molecules from patent US10351594B2, “Process for preparing compounds having triple activities of thrombolysis, antithrombosis, and radical scavenging” (Shanghai Lumosa Therapeutics Co., Ltd., priority 2013, dated 2019).

Assay [1] has as its system formation of thrombus (rat arteriovenous bypass). Briefly: Antithrombotic activity via intravenous administration, rat arteriovenous bypass cannula with thread. The assay is classed as in vivo, male SD rats. The settings on record: n = 10. The text has this:
A cannula was composed of 3 segments. The middle segment has a length of 80 mm and an inner diameter of 3.5 mm. […] The pre-weighed, 60 mm in length thread was placed in the middle segment of the polyethylene tube. Both ends of the wider tube sheathed the un-narrowed ends of two polyethylene tubes respectively (0.5 mm of the thread was restrained by one of the segment to fix the thread). The cannula was filled with a heparin solution in normal saline (50 IU/kg) through the tip end by using an injector and was ready for use. 200-220 g male SD rats were anesthetized with 20% urethane solution (6 mL/kg, ip). Anesthetized rats were fixed in a supine position, and the left external jugular vein was separated and penetrated with a suture at the proximal and distal ends respectively, and the distal end was ligated. An incision was carefully made on the exposed left external jugular vein, and the tip end without thread-restraining of the bypass cannula prepared as described above was inserted into the proximal end of the open incision in the left external jugular vein. A precise amount of heparin in normal saline (50 IU/kg) was injected through the tip at the other end by using an injector. Then, the injector was replaced, and precise amount of drug was injected by the same way. At this moment, without removing the injector from the ethylene tube, the right common carotid artery was separated, and the proximal end was clipped by an artery clip. The right common carotid artery was penetrated with a suture at the proximal and distal ends respectively, and the distal end was ligated. An incision was carefully cut across the right common carotid artery near the artery clip. The injector was pulled out of the polyethylene tube through the tip, and the tip of the polyethylene tube was then inserted into the proximal end of the artery incision. Both ends of the bypass cannula were fixed to the artery or vein with #4 sutures. The artery clip was then removed to allow blood to flow from the artery to the vein through the bypass cannula. A rat arteriovenous bypass thrombolysis model was thus established. The process was timed from the beginning of circulation, the thread attached with thrombus was taken out from the bypass cannula after 15 minutes and accurately weighed. The difference in the mass of the thread before and after was determined as the wet weight of the thrombus, which was statistically analyzed and used to evaluate the in vivo antithrombotic activities of the compounds. The wet weight of the thrombus was expressed as average value and standard deviation (x±SD). The drug administration method is intravenous injection. The blank control was normal saline solution, and the dose was 1 mL/kg. The positive control was aspirin, and the dose was 9 mg/kg. The dose of compounds 5Aa-p of the present invention was 0.1 nmol/kg. The method was the same as in example 3. The drug administration method is intravenous injection. The blank control was normal saline solution, and the dose was 3 mL/kg. The positive control was aspirin, and the dose was 9 mg/kg.

Assay [2] relates to thrombus (rat arteriovenous bypass thrombolysis model). Put plainly: Thrombolytic activity via intravenous administration, rat arteriovenous bypass thrombolysis model. Format: in vivo, male SD rats. The settings on record: n = 10. How it is done:
200-220 g male SD rats were anesthetized with 20% urethane solution (6 mL/kg, ip). Anesthetized rats were fixed in a supine position, and the right common carotid artery was separated, clamped at the proximal end with an arterial clip, and penetrated with a suture at the proximal and distal ends, respectively. The suture at the distal end is clipped tightly by a hemostatic clamp at the skin/fur. Cannulation was performed at the distal end, the arterial clamp was loosened, and about 1 ml arterial blood was discharged into a 1 mL EP vial. 0.1 mL rat arterial blood was injected into a vertically fixed glass tube (15 mm in length, with an inner diameter of 2.5 mm and an outer diameter of 5.0 mm, sealed with a rubber stopper at the bottom), into which was immediately inserted a thrombus immobilization screw made of stainless steel. […] 40 min after the blood coagulated, the rubber stopper at the bottom of the glass tube was removed, the stem of the thrombus immobilization screw was fixed by forceps, and the thrombus-wrapped thrombus immobilization screw was carefully taken out from the glass tube and precisely weighted.
A bypass cannula was composed of 3 segments. The middle segment was a polyethylene tube having a length of 60 mm and an inner diameter of 3.5 mm. The segments on both ends were similar polyethylene tubes having a length of 100 mm, an inner diameter of 1 mm and an outer diameter of 2 mm, one end of which was pulled to form a tip, with an outer diameter of 1.0 mm (used in inserting into the rat carotid artery or vein), the other end of which was sheathed by a polyethylene tube having a length of 7 mm and an outer diameter of 3.5 mm (thickened, used in inserting into the polyethylene tube of the middle segment). The inner wall of the 3-segment cannula was entirely silylated. The thrombus-wrapped thrombus immobilization screw was placed into the polyethylene tube of the middle segment, and both ends of the tube sheath the thickened ends of two polyethylene tubes. The cannula was filled with a heparin solution in normal saline (50 IU/kg) through the tip end by using an injector and was ready for use.
The left external jugular vein of the rat was separated and penetrated with a suture at the proximal and distal ends respectively, and the distal end was ligated. An incision was carefully made on the exposed left external jugular vein, and the tip of the bypass cannula prepared as described above was inserted into the proximal end of the incision in the left external jugular vein, away from the stem of the thrombus immobilization screw in the middle segment of the bypass cannula (which accommodated the accurately weighed thrombus immobilization screw). A precise amount of heparin in saline (50 IU/kg) was injected through the tip at the other end by using an injector. At this moment, without removing the injector from the polyethylene tube, the tube between the injector and the polyethylene tube was clamped with a hemostatic clamp. The blood flow was stopped by clamping the proximal end of the right common carotid artery with an arterial clip, and an incision was cut carefully across the common carotid artery near the clip. The injector was pulled out of the polyethylene tube through the tip, and the tip of the polyethylene tube was then inserted into the proximal end of the artery incision. Both ends of the bypass cannula were fixed to the artery or vein with #4 sutures.
A scalp needle was used to pass saline solution, a urokinase in saline solution or varied concentrations of the compounds in saline solution through the middle section of the bypass cannula (which accommodated the accurately weighed thrombus immobilization screw) to a position at the proximal vein and away from the thrombus immobilization screw. The artery clip was then removed to allow blood to flow from the artery to the vein through the bypass cannula. A rat arteriovenous bypass thrombolysis model was thus established. […]

The subject of another assay is stroke rats. Put plainly: Therapeutic effect in stroke rats (microthrombus injected into the brain, treated at once): Zealonga score and TTC infarction volume. The assay is classed as in vivo, SD male rats. The following applies: for Neural function scores: Zealonga method, 24 hours after awake, n = 9; for Percentage of infarction volume: cerebral infarction, TTC, n = 7. Here is the method: SD male rats (280-300 g) were randomly divided to UK positive control group at a dose of 20000 IU/kg, blank control group with normal saline solution, compound control group with PAK at a dose of 5 μmol/kg, and compound 5Ak group at a dose of 1 μmol/kg (high), 0.1 μmol/kg (medium), and 0.01 μmol/kg (low). A 10% chloral hydrate solution (400 mg/kg) was injected intraperitoneally into rats for anesthesia. […] The 10 μl blood drawn was placed in a 1 mL EP vial and kept at RT for 30 min to allow the coagulation of blood and then transferred into a −20° C. refrigerator for 1 hour to allow the formation of solid coagulation. 1 hour later, the blood clots were taken out, 1 mL normal saline was added therein, and then the blood clots were broken into relatively uniform microthrombus by a steel spatula. The microthrombus suspension was then transferred into a 1 mL injector for use. […] The common jugular vein was separated, and then injected with UK at the dose of 20000 IU/kg, normal saline solution, or compound 5Ak at the dose of 1 μmol/kg. The vein was ligated. 3 drops of penicillin was dropped on the wound. The wound was sewed, and animals were waited for awake.
24 hours after the rats were awake, the degree of damage in neural function was evaluated by the Zealonga method. […] The evaluation results were statistically analyzed and subjected to t-test.
After the rats were awake for 24 hours and assessed for their degree of damage in neural function by Zealonga method, they were anesthetized with urethane followed by immediate decapitation and removal of the brain. Brain tissues were kept in a −20° C. refrigerator for 2 hours, and coronal sections of about 2 mm were successively sliced from the prefrontal end for a total of 5 sections and then placed into a 2% TTC solution to incubate without light at 37° C. for 30 min. The color change in brain sections was observed: normal brain tissues were stained red by TTC, while ischemic brain tissues appeared in white. Photographs were taken by using a digital camera and processed with image statistics software, and the volume of infarction in brain tissues and the area of normal brain tissues in the coronal sections were calculated. The ratio of the cerebral infarction volume of each group was statistically calculated and subject to t-test.

Setting [3] is: Table 1, control groups 6, PAK, 6 + PAK, dose not given.

Marks after values point to notes of the source that are not given here.

Take `CC(=O)Oc1ccccc1C(=O)O` [Aspirin, aspirin, reference compound]: the “wet weight of thrombus” value in assay [1] (Table 3, Aspirin 9 mg/kg) is listed as 46.95 ± 5.21^a mg; in assay [1] (Table 4, Aspirin 9 mg/kg) it was 45.62 ± 2.60 mg.

As for `CC1(C)N[C@H](C(=O)N[C@@H](CCCCN)C(=O)O)Cc2cc(O)c(O)cc21` [Compound 6, 3S-6,7-dihydroxy-1,1-dimethyl-1,2,3,4-tetrahydro-isoquinoline-3-acyl-Lys, reference compound], the “Weight reduction in thrombus” value in assay [2] (setting [3]) is given as 13.87 ± 3.07^a mg.

With Pro-Ala-Lys [PAK, reference compound], the “Weight reduction in thrombus” value in assay [2] (setting [3]) is recorded as 14.17 ± 1.84^a mg. Further, in the assay on stroke rats (PAK 5 μmol/kg), the Neural function scores is 2.20 ± 1.60 and the “Percentage of infarction volume” value was 18.36 ± 7.38%.

Consider urokinase [reference compound], for which the “Weight reduction in thrombus” value in assay [2] (Table 1, urokinase 20000 U/kg (1.68 mg/kg) i.v.) was 18.95 ± 2.73^a mg. For the same molecule, the “Weight reduction in thrombus” value in assay [2] (Table 2, Urokinase 20000 U/kg i.v.) was 25.61 ± 3.87 mg. Further, in the assay on stroke rats (urokinase 20000 IU/kg), the Neural function scores is recorded as 1.30 ± 0.95^a and the “Percentage of infarction volume” value turned out to be 4.60 ± 2.09%.
